# Measured values taken from patent US20070172957A1, “Methods of identifying anti-inflammatory macrolides” (TAISHO PHARMACEUTICAL CO., LTD., priority 2004, published 2007).
# Tested on: genes predictive for the anti-inflammatory macrolide effect
# Assay: Genes statistically predictive of Clari response: differentially expressed with Clari but not the inactive macrolides MAA or Josa (Appendix E)
# Format: cell-based
# From the text: In the case of the above-mentioned (i) related to arachidonic acid biosynthesis, specifically, methods of the embodiment involve assaying whether a test macrolide alters biosynthesis of arachidonic acid, alters the expression or activities of enzymes involved in the biosynthesis or activation of arachidonic acid (e.g., arachidonic acid CoA synthetase, delta-6 desaturase, fatty acid elongase, and delta-5 desaturase, AA-related genes in Tables 2 and 3), or alters the expression of genes identified as predictive for the anti-inflammatory macrolide effect (Appendix E). Assays in which arachidonic acid or gene expression or enzymatic activity is detected can be carried out after contacting a cell with a test macrolide. Any cell line that secretes prostaglandin or produces arachidonic acid can be used. Epithelial and macrophages lines (e.g., A549 or THP-1) are suitable for this purpose; other cell lines can be identified by carrying out assays such as those described in the specific Examples, below. Alternatively, screening assays can be carried out after adding a test macrolide to an in vitro cell system (e.g., a cellular extract or liver microsome preparation) or an in vitro enzyme assay system.
compound,measurement,setting,value
CO[C@@H]1[C@@H](O[C@@H]2O[C@H](C)[C@@H](O[C@H]3C[C@@](C)(O)[C@@H](OC(=O)CC(C)C)[C@H](C)O3)[C@H](N(C)C)[C@H]2O)[C@@H](CC=O)C[C@@H](C)[C@@H](O)/C=C/C=C/C[C@@H](C)OC(=O)C[C@H]1OC(C)=O [josamycin],"group mean, gene UNG","SpotID 48807, MAA and Josa vs. Clari",1.03
same,"group mean, gene TUBB","SpotID 48914, MAA and Josa vs. Clari",0.96
same,"group mean, gene ITGAE","SpotID 48921, MAA and Josa vs. Clari",0.85
same,"mean group, ITGAE","SpotID 48921, pooled group mean",0.85
same,"group mean, gene P4HA2","SpotID 48971, MAA and Josa vs. Clari",1.07
same,"group mean, gene FADS1","SpotID 48998, MAA and Josa vs. Clari",1.02
same,"group mean, gene PRSS25","SpotID 49006, MAA and Josa vs. Clari",1.02
same,"mean group, PRSS25","SpotID 49006, pooled group mean",1.02
same,"group mean, gene TM9SF2","SpotID 49007, MAA and Josa vs. Clari",1.08
same,"mean group, TM9SF2","SpotID 49007, pooled group mean",1.08
same,"group mean, gene BBC3","SpotID 49013, MAA and Josa vs. Clari",0.93
same,"group mean, gene BNIP3L","SpotID 49028, MAA and Josa vs. Clari",1.03
same,"mean group, BNIP3L","SpotID 49028, pooled group mean",1.03
same,"group mean, gene GSK3B","SpotID 49032, MAA and Josa vs. Clari",1.06
same,"group mean, gene GLUD1","SpotID 49047, MAA and Josa vs. Clari",1.05
same,"group mean, gene SERPINB1","SpotID 49117, MAA and Josa vs. Clari",1.01
same,"mean group, SERPINB1","SpotID 49117, pooled group mean",1.01
same,"group mean, gene PPIB","SpotID 49142, MAA and Josa vs. Clari",1.03
same,"group mean, gene PIK3R3","SpotID 49144, MAA and Josa vs. Clari",1.01
same,"group mean, gene ARTS-1","SpotID 49155, MAA and Josa vs. Clari",1.11
same,"mean group, ARTS-1","SpotID 49155, pooled group mean",1.11
same,"group mean, gene LGALS3","SpotID 49163, MAA and Josa vs. Clari",1.06
same,"group mean, gene RRS1","SpotID 49169, MAA and Josa vs. Clari",1.09
same,"mean group, RRS1","SpotID 49169, pooled group mean",1.09
same,"group mean, gene YAF2","SpotID 49172, MAA and Josa vs. Clari",1.01
same,"group mean, gene NEDD8","SpotID 49177, MAA and Josa vs. Clari",0.97
same,"group mean, gene SRRM1","SpotID 49183, MAA and Josa vs. Clari",0.96
same,"group mean, gene FUCA1","SpotID 49197, MAA and Josa vs. Clari",0.98
same,"group mean, gene APOE","SpotID 49233, MAA and Josa vs. Clari",0.96
same,"mean group, APOE","SpotID 49233, pooled group mean",0.96
same,"mean group, TNFRSF10B","SpotID 49272, pooled group mean",0.97
same,"group mean, gene PPIB","SpotID 49314, MAA and Josa vs. Clari",1.04
same,"mean group, PPIB","SpotID 49314, pooled group mean",1.04
same,"group mean, gene YWHAH","SpotID 49318, MAA and Josa vs. Clari",1.08
same,"mean group, YWHAH","SpotID 49318, pooled group mean",1.08
same,"group mean, gene HNRPA3","SpotID 49347, MAA and Josa vs. Clari",1.01
same,"group mean, gene NCBP2","SpotID 49352, MAA and Josa vs. Clari",0.94
same,"group mean, gene TEB4","SpotID 49360, MAA and Josa vs. Clari",1.10
same,"mean group, TEB4","SpotID 49360, pooled group mean",1.10
same,"group mean, gene ABCE1","SpotID 49364, MAA and Josa vs. Clari",1.06
same,"group mean, gene EIF3S9","SpotID 49373, MAA and Josa vs. Clari",1.06
same,"mean group, SpotID 49374","SpotID 49374 (gene symbol not given), pooled group mean",0.97
same,"group mean, SpotID 49374 (gene symbol not given)","SpotID 49374, MAA and Josa vs. Clari",0.97
same,"group mean, gene SLC35A2","SpotID 49380, MAA and Josa vs. Clari",0.99
same,"group mean, gene PPP3CB","SpotID 49391, MAA and Josa vs. Clari",1.02
same,"group mean, gene TRRAP","SpotID 49435, MAA and Josa vs. Clari",1.07
same,"mean group, TRRAP","SpotID 49435, pooled group mean",1.07
same,"group mean, gene SRC","SpotID 49446, MAA and Josa vs. Clari",1.00
same,"mean group, SRC","SpotID 49446, pooled group mean",1.00
same,"group mean, gene LOC55871","SpotID 49481, MAA and Josa vs. Clari",0.90
same,"group mean, gene VTN","SpotID 49490, MAA and Josa vs. Clari",1.12
same,"mean group, VTN","SpotID 49490, pooled group mean",1.12
same,"group mean, gene MATN2","SpotID 49511, MAA and Josa vs. Clari",0.93
same,"group mean, gene GC20","SpotID 49512, MAA and Josa vs. Clari",1.01
same,"group mean, gene UBC","SpotID 49514, MAA and Josa vs. Clari",0.97
same,"mean group, UBC","SpotID 49514, pooled group mean",0.97
same,"group mean, gene AP1G2","SpotID 49524, MAA and Josa vs. Clari",0.74
same,"mean group, AP1G2","SpotID 49524, pooled group mean",0.74
same,"group mean, gene GNPI","SpotID 49546, MAA and Josa vs. Clari",1.05
same,"mean group, LOC54543","SpotID 49577, pooled group mean",0.88
same,"group mean, gene PSMC4","SpotID 49580, MAA and Josa vs. Clari",1.12
same,"mean group, CSTF3","SpotID 49606, pooled group mean",0.98
same,"group mean, gene POU4F1","SpotID 49608, MAA and Josa vs. Clari",0.97
same,"group mean, gene CLN2","SpotID 49618, MAA and Josa vs. Clari",1.03
same,"mean group, CLN2","SpotID 49618, pooled group mean",1.03
same,"group mean, gene FGF2","SpotID 49649, MAA and Josa vs. Clari",1.12
same,"group mean, gene MAP3K10","SpotID 49650, MAA and Josa vs. Clari",0.93
same,"mean group, BTN3A2","SpotID 49673, pooled group mean",0.92
same,"mean group, SERPINF1","SpotID 49679, pooled group mean",0.98
same,"group mean, gene GSK3B","SpotID 49688, MAA and Josa vs. Clari",1.05
same,"group mean, gene CAT","SpotID 49698, MAA and Josa vs. Clari",0.92
same,"group mean, gene PCYT2","SpotID 49705, MAA and Josa vs. Clari",0.92
same,"group mean, gene HNRPD","SpotID 49715, MAA and Josa vs. Clari",0.99
same,"group mean, gene GSK3B","SpotID 49735, MAA and Josa vs. Clari",1.02
same,"group mean, gene CHAF1B","SpotID 49737, MAA and Josa vs. Clari",0.99
same,"mean group, CHAF1B","SpotID 49737, pooled group mean",0.99
same,"group mean, gene USF2","SpotID 49744, MAA and Josa vs. Clari",0.93
same,"group mean, gene RPLP0","SpotID 49747, MAA and Josa vs. Clari",0.91
